Read-outs that look alike come from different tables or passages of the source.
How the values were obtained:
NCI-H460 = test: In vitro cytotoxicity, MTT assay; type: cell-based, human; conditions: NCI-H460, MTT assay, 72 h incubation
Experimental: (§2) In vitro cytotoxicity assays. HeLa, NCI-H460, HCT116, A2780, A2780cis and
(§3) cells), respectively, were seeded in 96-well plates for 24 h. The cells were then treated with a serial concentration of gold(III) complexes and incubated at 37 °C under a 5% CO2 atmosphere for 72 h. For nanostructures of 1, 2 and NC1, they were dissolved in
(§4) cisplatin were dissolved in culture medium-DMSO solution mixture (99:1, v/v).

A2780cis = test: In vitro cytotoxicity, MTT assay; type: cell-based, human; conditions: for IC50: A2780cis, MTT assay, 72 h incubation; for Resistance found in A2780cis: IC50 of A2780cis cells / IC50 of A2780 cells
Experimental: as §2, §3, §4

HCT116 cells = test: Time-dependent induction of apoptosis, Caspase-3/7 Green ReadyProbes fluorescence microscopy; type: cell-based, human; conditions: HCT116, NC1 ([1] = 3.5 μM and [DOX] = 0.5 μM) or DOX alone (0.5 μM), Caspase-3/7 Green Reagent
Experimental: B from 20.1 to 25 min and returned to initial conditions and equilibrated for 3 minutes.
The flow rate was 0.4 mL/min and the injection volume was 2 µL. The UPLC-QTOF-MS chromatograms of 1, 3, 4 and solvent control in acetonitrile were also recorded for the interpretation of UPLC-QTOF-MS chromatograms of the cell lysate.
Cellular uptake experiments. HCT116, A2780 and A2780adr (2×10 5 cells), and MIHA and NCM460 (3.5×10 5 cells) cells were grown on 6-well plates at 37 °C under an atmosphere of 5% CO2 for 48 h. The culture medium was then removed, washed with PBS solution, and incubated with culture medium containing nanostructures of 1 […]
Au1a (2 µM; with 1 vol% DMSO). At a predetermined time, the culture medium was removed and washed with PBS solution for three times. The cells were then harvested and dispersed in ice-cold water. An aliquot of the cell suspension was subjected to Bio-rad protein assay with a microtitre plate reader at the absorbance at 595 nm, using bovine serum albumin as the protein standard. […] The solution mixture was heated at 65 °C with shaking overnight, and the gold content was determined by ICP-MS. […]
then removed and washed with PBS solution. The cells were then incubated with culture medium containing nanostructures of 1 (2 µM) and CellEvent Caspase-3/7 Green ReadyProbes Reagent (30 µL), or Au1a (2 µM; with 1 vol% DMSO) and CellEvent Caspase-3/7 Green ReadyProbes Reagent (30 µL) at 37 °C under an atmosphere of 5% CO2. Fluorescence images at different time intervals were recorded by the fluorescence microscope without washing the cells. […]
once every 2–3 days. The tumor volume was calculated by the equation: Volume (mm3) = l×w2/2, where l and w were the length and width of the tumor. At the end of the treatment, the nude mice were sacrificed and the tumor weight was measured. […]
At a predetermined time, the culture medium was removed and washed with PBS solution for three times. […] An aliquot of the cell suspension was subjected to Bio-rad protein assay with a microtitre plate reader at the absorbance at 595 nm, using bovine serum albumin as the protein standard. […]

HCT116 = test: In vitro cytotoxicity, MTT assay; type: cell-based, human; conditions: HCT116, MTT assay, 72 h incubation
Experimental: as §2, §3, §4

A2780 = test: In vitro cytotoxicity, MTT assay; type: cell-based, human; conditions: A2780, MTT assay, 72 h incubation
Experimental: as §2, §3, §4

A2780adr = test: In vitro cytotoxicity, MTT assay; type: cell-based, human; conditions: for IC50: A2780adr; for Resistance found in A2780adr: IC50 of A2780adr cells / IC50 of A2780 cells
Experimental: as §2, §3, §4

MIHA = test: In vitro cytotoxicity, MTT assay; type: cell-based
Experimental: as §2, §3, §4

HeLa = test: In vitro cytotoxicity, MTT assay; type: cell-based, human; conditions: HeLa
Experimental: as §2, §3, §4

CHEM-5 = test: In vitro cytotoxicity, MTT assay; type: cell-based, human; conditions: CHEM-5, MTT assay, 72 h
Experimental: (§1) page 7: The gold content of the nanocomposites was determined by dissolving the nanocomposites in conc. HNO3 / conc. HCl solution mixture (9:1, v/v; 30 µL), followed by ICP-MS analysis. […] The nanocomposite (10 µL) was dissolved in acetonitrile (90 µL), and subjected to gentle shaking overnight. The solution mixture was then dried under vacuum, and re- dispersed in 0.1 vol% formic acid in water/acetonitrile (7/3, v/v; 1 mL) solution mixture. […] The mobile phase was 0.1 vol% formic acid in water/acetonitrile (7:3, v/v) solution mixture. […] The cells were then treated with a serial concentration of gold(III) complexes and incubated at 37 °C under a 5% CO2 atmosphere for 72 h. […] After incubation for 72 h, MTT in PBS solution (5 mg/mL, 10 μL) was added to each well. The plates were incubated at 37 °C under a 5% CO2 atmosphere for another 4 h, and the cells were lysed by the addition of SDS solution (10%, w/w) with 0.01 M HCl (100 μL). After incubation in dark at 37 °C overnight, the cell viability after treatment was determined by a microtitre plate reader monitoring at the absorbance at 590 nm, P.7 page 8: which reflected the amount of blue formazan formed. IC50 values were then determined by CompuSyn S6 from three independent measurements. Study on the release of hydrolyzed product from 1 and 2 in aqueous buffer solutions by ICP-MS. […] At a predetermined time, an aliquot of solution was removed and dissolved in HNO3/HCl solution mixture (9:1, v/v; volume of aliquot: volume of acid mixture = 1:3). The solution mixture was heated at 65 °C with shaking overnight, and the gold content was determined by ICP-MS from three independent aliquots. […] 37 °C for 24 h. […] Analysis of cell lysate of HCT116 cells treated with complexes 1 and 3 by UPLC- QTOF-MS. […] All the cells were harvested, washed with PBS solution for three times and dispersed in ice-cold water. The cell suspension was then added to ice-cold acetonitrile (1:3, v/v), vortexed for 5 min, and centrifuged at 10,000 rpm at 4 °C. The supernatant was collected, dried under vacuum and the solid was re-dissolved in acetonitrile (HPLC grade) for UPLC- QTOF-MS experiments. The mobile phase was a mixture of 0.1% formic acid in water (phase A) and 0.1% formic acid in acetonitrile (phase B). […] P.46

L02 = test: In vitro cytotoxicity, MTT assay; type: cell-based, human; conditions: 72 h
Experimental: as §1

NCM460 = test: In vitro cytotoxicity, MTT assay; type: cell-based, human; conditions: 72 h incubation
Experimental: as §2, §3, §4

CCD-19Lu = test: In vitro cytotoxicity, MTT assay; type: cell-based, human; conditions: 72 h incubation
Experimental: as §2, §3, §4

[1] = 72 h, read-out: Total dose at IC50
[2] = MTT assay, 72 h incubation, read-out: IC50

Compound | IC50 (NCI-H460) [nM] | IC50 (A2780cis) [nM] | Resistance found in A2780cis (A2780cis) | incubation time for induction of apoptosis (HCT116 cells) [h] | IC50 (HCT116) [nM] | IC50 (A2780) [nM] | IC50 (A2780adr; [1]) [nM] | IC50 (A2780adr; [2]) [nM] | Resistance found in A2780adr (A2780adr) | IC50 (A2780adr; read-out: DOX at IC50, 72 h) [nM] | IC50 (MIHA; [1]) [nM] | IC50 (MIHA; [2]) [nM] | IC50 (MIHA; read-out: DOX at IC50, 72 h) [nM] | IC50 (HeLa; [1]) [nM] | IC50 (HeLa; [2]) [nM] | IC50 (HeLa; read-out: DOX at IC50, 72 h) [nM] | IC50 (CHEM-5) [nM] | IC50 (L02) [nM] | IC50 (NCM460) [nM] | IC50 (CCD-19Lu) [nM]
COc1cccc2c1C(=O)c1c(O)c3c(c(O)c1C2=O)C[C@@](O)(C(=O)CO)C[C@@H]3O[C@H]1C[C@H](N)[C@H](O)[C@H](C)O1 [DOX, Doxorubicin, reference compound] | 40 ± 10 | 50 ± 10 | 1.20 | 30 | 140 ± 20 | 50 ± 10 | 680 | 680 ± 50 | 14.3 | 680 | 100 | 100 ± 10 | 100 | 570 | 570 ± 60 | 570 |  |  |  | 
N.N.[Cl][Pt][Cl] [Cisplatin, cisplatin, reference compound] | 65400 ± 5060 | 8360 ± 50 | 3.23 |  | 15700 ± 2200 | 2590 ± 300 |  | 12700 ± 1830 | 5 |  |  | 17600 ± 1310 |  |  | 19800 ± 1420 |  | 13000 ± 200 | 5900 ± 20 | 12300 ± 870 | 49100 ± 5430

Source: PMC5384453, “A multi-functional PEGylated gold(III) compound: potent anti-cancer properties and self-assembly into nanostructures for drug co-delivery” (Chemical Science, 2016)
